Data from patent US9005670B2, “Use of histone acetyltransferase inhibitors as novel anti-cancer therapies” (The Johns Hopkins University, priority 2010, dated 2015).

How the values were obtained:
p300 HAT [1] = target: T1, p300 HAT (Homo sapiens, UniProt Q09472, DEL1529-1560/M1652G); assay: direct radioactive p300 HAT assay (14C-acetyl-CoA transfer to H4-15); assay type: biochemical; conditions: for weakening of p300 inhibitory potency compared with C646 (relative IC50): range of concentrations
T1 construct: A variant of the HAT domain of p300 (residues 1287 to 1652) was expressed as a fusion; a C-terminal peptide corresponding to residues 1653-1666 of p300; made in house; host or cells: E. coli BL21(RIL)-DE3; C-terminal peptide by solid phase synthesis
T1 sequence (Q09472 with tags, fused parts or gaps DEL1529-1560/M1652G limits assumed): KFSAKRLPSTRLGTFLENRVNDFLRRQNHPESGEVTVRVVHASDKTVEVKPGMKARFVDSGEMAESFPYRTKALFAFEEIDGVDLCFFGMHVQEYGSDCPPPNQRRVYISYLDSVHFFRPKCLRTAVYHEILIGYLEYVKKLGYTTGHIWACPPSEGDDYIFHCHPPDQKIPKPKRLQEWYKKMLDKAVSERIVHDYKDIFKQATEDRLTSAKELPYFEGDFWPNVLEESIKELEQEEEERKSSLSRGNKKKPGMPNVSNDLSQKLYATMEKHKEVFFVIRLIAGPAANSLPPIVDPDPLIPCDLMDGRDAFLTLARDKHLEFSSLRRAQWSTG
Experimental: In this assay, production of ^14C-labeled Ac-H4-15 is monitored electrophoretically. Reactions were performed in 20 mM HEPES, pH 7.9, and contained 5 mM DTT, 80 μM EDTA, 40 μg/mL BSA, 100 μM H4-15, and 5 nM p300. […] Reactions were incubated at 30° C. for 10 minutes, initiated with addition of a 1:1 mixture of 12 C-acetyl-CoA and 14 C-acetyl-CoA to a final concentration of 20 μM, and allowed to run for 10 min at 30° C. Reactions are then quenched with addition of 14% SDS (w/v). Turnover was kept below 10%. All compounds were screened in duplicate. Samples were then loaded onto a 16% Tris-Tricine gel along with a BSA standard and run at 140 V for 90 minutes. Gels were washed and dried, and exposed in a PhosphorImager cassette for ˜2 days. Bands corresponding to Ac-H4-15 were then quantified using ImageQuant.
Reactions were performed in 20 mM HEPES, pH 7.9, and contained 5 mM DTT, 80 μM EDTA, 40 μg/mL BSA, 100 μM […], and 5 nM p300. Putative inhibitors were added over a range of concentrations, with DMSO concentration kept constant (<5%). Reactions were incubated at 30° C. for 10 minutes, then initiated with addition of a 1:1 mixture of ^12C-acetyl-CoA and ^14C-acetyl-CoA to 20 μM. After […] at 30° C., reactions were quenched with 14% SDS (w/v). All concentrations were screened in duplicate. Gels were run, washed, dried, and exposed to a PhosphorImager plate as described above, and production of Ac-H4-15 quantified. Data were fit to the following equation to obtain IC50s. […]

p300 HAT [2] = target: T1, p300 HAT; assay: coupled spectrophotometric p300 HAT assay; assay type: biochemical; conditions: for % inhibition in initial screen: compounds at 100 μM
Experimental: After completing the computational docking screen, the top 194 inhibitors were tested in a convenient spectrophotometric assay as described in Kim et al., Anal. Biochem. 280, 308 (2000). In the coupled spectrophotometric assay, the acetyltransferase reaction product CoASH becomes a substrate for alpha-ketoglutarate dehydrogenase, which converts NAD to NADH, resulting in an increase of UV absorbance at 340 nm. Screening conditions for these p300 HAT assays included substrate concentrations of 200 μM histone H4-15 peptide and 50 μM acetyl-CoA, and potential small molecule inhibitors tested at 100 μM. […] To distinguish inhibitory effects related to blockade of coupling enzyme rather than p300, assays were repeated using increased (2-fold) alpha-ketoglutarate dehydrogenase. […] The remaining compounds were then assessed in a protein aggregation-related inhibition assay as described in Feng et al., Nat. Chem. Biol. 1, 146 (2005). […] In this radioactive p300 HAT assay, ^14C transfer from ^14C-acetyl-CoA into peptide substrate is directly measured using Tris-Tricine SDSPAGE and phosphorimage analysis.
The top 194 p300 HAT inhibitor candidates identified by VLS were screened using a coupled spectrophotometric assay. In this assay, CoASH produced by the p300 reaction is used by α-ketoglutarate dehydrogenase (α-KGDH) to produce NADH, which can be monitored spectrophotometrically at 340 nm. Reactions were performed at 30° C. in […] HEPES, pH 7.9, and contained 200 μM H4-15, 200 μM TPP, 5 mM MgCl 2, 1 mM DTT, 50 μg/mL BSA, 200 μM NAD, 2.4 mM α-ketoglutarate, 200 μM acetyl-CoA, 0.1 units α-KGDH, and 100 nM p300. DMSO was kept at a constant 3.3%, and candidate compounds were screened at 100 μM. Reaction mixtures were incubated at 30° C. for 10 min prior to initiation. Reactions were initiated with addition of H4-15 and followed over the linear portion of the progress curve, which provides the initial velocity via linear regression. Percent inhibition was determined by comparison with velocity without candidate added. […] To ensure that compounds were not inhibiting α-KGDH instead of p300, compounds were assayed with 0.2 units of α-KGDH, two times the amount used in the initial screen. To ensure that compounds were not inhibiting through nonspecific aggregation, compounds were assayed in the presence of 0.01% Triton X-100.

| SMILES | % inhibition in initial screen (p300 HAT [2]) | also measured |
| --- | --- | --- |
| CC1=NN(c2ccc(C(N)=O)cc2)C(=O)C1=Cc1ccc(-c2cc(C)c(C)cc2[N+](=O)[O-])o1 [Compound 6a, 4-(4,5-dihydro-3-methyl-4-((5-(4,5-dimethyl-2-nitrophenyl)furan-2-yl)methylene)-5-oxopyrazol-1-yl)benzamide] |  | p300 HAT inhibition, result in words (analogs compared with C646) (p300 HAT [1]): well tolerated; melting point: 273 to 275 °C |
| CC1=NN(c2ccc(C(N)=O)c(Cl)c2)C(=O)/C1=C\c1ccc(-c2cc(C)c(C)cc2[N+](=O)[O-])o1 [Compound 6b, 4-(4,5-dihydro-3-methyl-4-((5-(4,5-dimethyl-2-nitrophenyl)furan-2-yl)methylene)-5-oxopyrazol-1-yl)-2-chloro-benzamide] |  | melting point: 267 to 269 °C |
| CC1=NN(c2cccc(C(=O)O)c2)C(=O)C1=Cc1ccc(-c2cc(C)c(C)cc2[N+](=O)[O-])o1 [Compound 6e, 3-(4,5-dihydro-3-methyl-4-((5-(4,5-dimethyl-2-nitrophenyl)furan-2-yl)methylene)-5-oxopyrazol-1-yl)benzoic acid] |  | p300 HAT inhibition, result in words (analogs compared with C646) (p300 HAT [1]): well tolerated; melting point: 260 to 262 °C |
| CC1=NN(c2ccc(S(=O)(=O)O)cc2)C(=O)C1=Cc1ccc(-c2cc(C)c(C)cc2[N+](=O)[O-])o1 [Compound 6f] |  | p300 HAT inhibition, result in words (analogs compared with C646) (p300 HAT [1]): well tolerated |
| CC1=NN(c2ccc(S(N)(=O)=O)cc2)C(=O)/C1=C\c1ccc(-c2cc(C)c(C)cc2[N+](=O)[O-])o1 [Compound 6g] |  | melting point: 152 to 154 °C |
| COC(=O)c1ccc(N2N=C(C)C(=Cc3ccc(-c4cc(C)c(C)cc4[N+](=O)[O-])o3)C2=O)cc1 [Compound 6h, Methyl 4-(4,5-dihydro-3-methyl-4-((5-(4,5-dimethyl-2-nitrophenyl)furan-2-yl)methylene)-5-oxopyrazol-1-yl)benzoate] |  | weakening of p300 inhibitory potency compared with C646 (relative IC50) (p300 HAT [1]): > 15 fold; melting point: 214 to 216 °C |
| COC(=O)c1cccc(N2N=C(C)/C(=C/c3ccc(-c4cc(C)c(C)cc4[N+](=O)[O-])o3)C2=O)c1 [Compound 6i, Methyl 3-(4,5-dihydro-3-methyl-4-((5-(4,5-dimethyl-2-nitrophenyl)furan-2-yl)methylene)-5-oxopyrazol-1-yl)benzoate] |  | p300 HAT inhibition, result in words (analogs compared with C646) (p300 HAT [1]): well tolerated; melting point: 205 to 207 °C |
| CC1=NN(CCC(=O)O)C(=O)C1=Cc1ccc(-c2cc(C)c(C)cc2[N+](=O)[O-])o1 [Compound 6k, 3-(4,5-dihydro-3-methyl-4-((5-(4,5-dimethyl-2-nitrophenyl)furan-2-yl)methylene)-5-oxopyrazol-1-yl)propanoic acid] |  | p300 HAT inhibition, result in words (analogs compared with C646) (p300 HAT [1]): cannot successfully replace the benzoate ring of C646 and still retain p300 inhibitory potency; melting point: 189 to 190 °C |
| CC1=NN(c2ccc(C(=O)O)cc2)C(=O)/C1=C\c1ccc(-c2cc(C)c(C)cc2CO)o1 [Compound 6l, 4-(4,5-dihydro-4-((5-(2-(hydroxymethyl)-4,5-dimethylphenyl)-furan-2-yl)methylene)-3-methyl-5-oxopyrazol-1-yl)benzoic acid] |  | p300 HAT inhibition, result in words (analogs compared with C646) (p300 HAT [1]): substantial reduction in potency; melting point: 209 to 211 °C |
| CCOC(=O)c1cc(C)c(C)cc1-c1ccc(/C=C2\C(=O)N(c3ccc(C(=O)O)cc3)N=C2C)o1 [Compound 6n, 4-(4,5-dihydro-4-((5-(4,5-dimethyl-2-ethylbenzoate)furan-2-yl)methylene)-3-methyl-5-oxopyrazol-1-yl)benzoic acid] |  | melting point: 241 to 243 °C |
| Cc1cc(-c2ccc(C(=O)c3c(C)nn(-c4ccc(C(=O)O)cc4)c3O)o2)c([N+](=O)[O-])cc1C [Compound 6q] |  | weakening of p300 inhibitory potency compared with C646 (relative IC50) (p300 HAT [1]): 6 fold |
| COc1ccc(N2C(=O)CC(SCC(=O)O)C2=O)cc1 (stereo not shown) [Compound 5109125] | 0.0% |  |
| O=C(CSC1CC(=O)N(c2ccc(C(=O)O)cc2)C1=O)Nc1ccc(F)cc1 (stereo not shown) [Compound 5310308] | 0.0% |  |
| NC(=O)c1ccccc1NC(=O)CCC(=O)O [Compound 5317891] | 0.0% |  |
| O=C(O)CCSc1nc2ccccc2c(=O)[nH]1 [Compound 5485989] | 0.0% |  |
| COc1cccc(NC(=O)C(=O)NCCc2ccc(OC)c(OC)c2)c1 [Compound 5574003] | 0.0% |  |

| SMILES | % inhibition in initial screen (p300 HAT [2]) | also measured |
| --- | --- | --- |
| COc1ccc(CCNC(=O)c2ccccc2[N+](=O)[O-])cc1OC [Compound 5693758] | 0.0% |  |
| Cc1ccc(C(=O)Nc2cccc([N+](=O)[O-])c2)cc1S(=O)(=O)Nc1cccc(C(=O)O)c1 [Compound 5913514] | 0.0% |  |
| O=C(O)c1ccc(Br)c(S(=O)(=O)Nc2ccc(NC(=O)c3ccccc3)cc2)c1 [Compound 5913665] | 0.0% |  |
| O=C(O)c1cccc(NC(=O)c2cc(S(=O)(=O)Nc3cccc([N+](=O)[O-])c3)ccc2Cl)c1 [Compound 5915900] | 0.0% |  |
| C=CCn1c(SCC(=O)O)nc2sc3c(c2c1=O)CCCC3 [Compound 5915918] | 0.0% |  |
| CC(=O)c1ccc(NS(=O)(=O)c2cccc(C(=O)Nc3cccc(C(=O)O)c3)c2)cc1 [Compound 5917216] | 38.6% |  |
| Cc1nc(SCc2ccccc2)[nH]c(=O)c1CC(=O)O [Compound 6658754] | 0.0% |  |
| O=C(O)CCC(=O)Nc1ccc(-c2nc3cc(Cl)ccc3o2)cc1 [Compound 6786461] | 66.6% | % inhibition with 2x coupling enz (p300 HAT [2]; 0.2 units α-KGDH (two times)): 100.0%; % inhibition with .01% Triton X-100 (p300 HAT [2]; aggregation control, 0.01% Triton X-100): 58.2%; % inhibition at 25 uM in radioactive assay (p300 HAT [1]; 25 uM): 0.0% |
| COc1ccc(C(CC(=O)O)c2ccc(OC)c(OC)c2)cc1OC [Compound 6971425] | 0.0% |  |
| COc1cccc(CNC(=O)C(=O)Nc2ccc(C(C)C)cc2)c1 [Compound 7076620] | 0.0% |  |
| O=C(O)CCSCC(=O)c1ccc(NS(=O)(=O)c2ccccc2)cc1 [Compound 7112743] | 0.0% |  |
| COc1ccc(S(=O)(=O)N2CCCC(C(=O)O)C2)cc1 (stereo not shown) [Compound 7185124] | 0.0% |  |
| Cc1cc(C)c(S(=O)(=O)N2CCCC(C(=O)O)C2)c(C)c1 (stereo not shown) [Compound 7188864] | 0.0% |  |
| O=C(O)C1CCCN(S(=O)(=O)c2cccs2)C1 (stereo not shown) [Compound 7195131] | 0.0% |  |
| Cc1nc(=O)c(-c2ccccc2)c(C)n1-c1ccccc1C(=O)O [Compound 7261568] | 0.0% |  |
